The results in this text go back to ChEMBL document CHEMBL1201862, “PubChem BioAssay data set” (2004).

Test systems include CAKI-1; SF-268; NCI-H460; UACC-62; NCI-H23; Malme-3M; SK-MEL-2; CCRF-CEM; HCT-116; DU-145; K562; EKVX; HT-29; BT-549; RXF 393; KM12; OVCAR-4; A549; T47D; HCC 2998.
Holding throughout (experiment): NCI tumour cell line growth inhibition, 48 h

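Method: 48-hour compound exposure of cells in 96-well plates, five concentrations, linear interpolation of endpoints. Abbreviation: GI50, concentration required for 50% inhibition of growth.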 The source made the active and inactive calls. Cut-off read from the data, not from the text of the source: active = GI50 up to about 1.1 µM and inactive = higher. Bounds are passed on as bounds.

Consider `Cn1c(=O)sc2cc(C(=S)N3CCN(c4ccccc4)CC3)ccc21`, for which the GI50 in the test with CAKI-1 is > 100 µM (inactive); in the test with SF-268 it was 29.9 µM (inactive); in the test with NCI-H460, 51.9 µM (inactive); in the test with UACC-62, 31.8 µM (inactive); in the test on NCI-H23, 34.1 µM (inactive); with Malme-3M, 42.3 µM (inactive). For the same compound, the GI50 in the test on SK-MEL-2 was 56 µM (inactive); with CCRF-CEM it was 40.7 µM (inactive); with HCT-116, 85.5 µM (inactive); in the test on DU-145, > 100 µM (inactive); in the test on K562, > 100 µM (inactive); with EKVX, 44.3 µM (inactive). In addition, the GI50 was > 100 µM (inactive) in the test on HT-29, 60.7 µM (inactive) with BT-549, 30.5 µM (inactive) in the test on RXF 393 and > 100 µM (inactive) in the test on KM12.
Regarding `c1cc2c(cc1NC1=NCCO1)OCO2`, the GI50 with CAKI-1, with SF-268, in the test on OVCAR-4, with NCI-H460, in the test with UACC-62 and in the test on NCI-H23 was > 100 µM (inactive) each time. In addition, the GI50 with A549 was > 100 µM (inactive); in the test on Malme-3M, > 100 µM (inactive); in the test on SK-MEL-2, > 100 µM (inactive); in the test on CCRF-CEM it was 12.9 µM (inactive); with HCT-116, > 100 µM (inactive); in the test with DU-145, > 100 µM (inactive). The GI50 was 11.9 µM (inactive) in the test with K562; > 100 µM (inactive) in the test on EKVX; > 100 µM (inactive) in the test with HT-29; > 100 µM (inactive) in the test with RXF 393; > 100 µM (inactive) in the test with KM12; > 100 µM (inactive) with T47D. For the same compound, the GI50 in the test on HCC 2998 is > 100 µM (inactive).
For the compound `CN1C2=Nc3n(C)c4ccccc4[n+]3CN2c2ccccc21`, the GI50 in the test on CAKI-1 was > 100 µM (inactive); with SF-268, 13.1 µM (inactive); with NCI-H460, 24.2 µM (inactive); in the test with UACC-62, 17 µM (inactive); with NCI-H23, 26.5 µM (inactive); with A549, 37.6 µM (inactive). The GI50 is 4.21 µM (inactive) in the test with Malme-3M; 18.4 µM (inactive) with SK-MEL-2; 47.4 µM (inactive) in the test on CCRF-CEM; 43.2 µM (inactive) in the test with HCT-116; 43.3 µM (inactive) in the test on DU-145; 29.5 µM (inactive) in the test with K562. Moreover, the GI50 is 36.1 µM (inactive) in the test on EKVX; 38 µM (inactive) with HT-29; > 100 µM (inactive) with BT-549; 8.73 µM (inactive) with KM12; 16.3 µM (inactive) with T47D.
For the compound `Cc1ccc(SCC(CF)OCn2cc(F)c(=O)[nH]c2=O)cc1` (centres undefined), the GI50 with CAKI-1, in the test on SF-268, in the test with OVCAR-4, in the test on NCI-H460, in the test on NCI-H23 and with A549 was > 100 µM (inactive) each time. For the same compound, the GI50 with Malme-3M is > 100 µM (inactive); with SK-MEL-2, > 100 µM (inactive); in the test on CCRF-CEM, 55.2 µM (inactive); in the test on HCT-116 it was > 100 µM (inactive); in the test with DU-145, > 100 µM (inactive); in the test with K562, > 100 µM (inactive). The GI50 with EKVX, in the test with HT-29, in the test with RXF 393, with T47D and in the test with HCC 2998 was > 100 µM (inactive) each time.
For the compound `NC(Cc1c2ccccc2cc2ccccc12)C(=O)O` (centres undefined), the GI50 in the test with CAKI-1 was 62.2 µM (inactive); in the test with SF-268, > 100 µM (inactive); in the test on OVCAR-4, > 100 µM (inactive); in the test with NCI-H460, 59.8 µM (inactive); in the test on UACC-62, 76.9 µM (inactive); with NCI-H23 it was > 100 µM (inactive). Also, the GI50 in the test with A549 is > 100 µM (inactive); in the test with Malme-3M, 80.7 µM (inactive); in the test with SK-MEL-2, > 100 µM (inactive); with CCRF-CEM it was 94.8 µM (inactive); in the test on HCT-116 it was 83.9 µM (inactive); with DU-145, 85.1 µM (inactive). For the same compound, the GI50 in the test with K562, in the test on EKVX, with HT-29, in the test with RXF 393, in the test with KM12 and with T47D was > 100 µM (inactive) in each case. Also, in the test with HCC 2998, the GI50 was > 100 µM (inactive).
Regarding `NC1NCCC(=O)N1CCc1c[nH]c2ccccc12` (centres undefined), the GI50 was 29.2 µM (inactive) in the test on CAKI-1; 22.1 µM (inactive) in the test with SF-268; 27.1 µM (inactive) in the test on OVCAR-4; 16.8 µM (inactive) in the test with NCI-H460; 20.1 µM (inactive) in the test with UACC-62; 18.7 µM (inactive) in the test with NCI-H23. In addition, the GI50 is 26.1 µM (inactive) in the test with A549; 19.9 µM (inactive) in the test on Malme-3M; 19.9 µM (inactive) in the test on SK-MEL-2; 23.6 µM (inactive) in the test with CCRF-CEM; 13.6 µM (inactive) in the test with HCT-116; 23.7 µM (inactive) in the test on DU-145. Also, the GI50 was 22.4 µM (inactive) in the test with K562; 28.1 µM (inactive) in the test on EKVX; 27.2 µM (inactive) in the test with HT-29; 22.8 µM (inactive) in the test with RXF 393; 15.5 µM (inactive) in the test on KM12; 37.2 µM (inactive) with T47D. The GI50 in the test on HCC 2998 is 18.5 µM (inactive).
`O=C(CCl)N1CCN(c2ccccn2)CC1`: the GI50 is 19.3 µM (inactive) in the test on CAKI-1; 23.6 µM (inactive) in the test with SF-268; 15.6 µM (inactive) in the test with OVCAR-4; 19.3 µM (inactive) with NCI-H460; 19.8 µM (inactive) with NCI-H23; > 10 µM (inactive) with A549. In addition, the GI50 in the test on Malme-3M was 16.8 µM (inactive); in the test with CCRF-CEM it was 19.9 µM (inactive); with HCT-116 it was 32.3 µM (inactive); in the test on DU-145 it was > 100 µM (inactive); with K562, 31.7 µM (inactive); with EKVX, 26.9 µM (inactive). Moreover, the GI50 in the test on HT-29 is 17.7 µM (inactive); in the test with RXF 393, 23.4 µM (inactive); with KM12 it was 34.5 µM (inactive); with T47D it was 13.2 µM (inactive); in the test on HCC 2998, 19.4 µM (inactive).
Consider `N/N=C1/C(=N/O)CCc2nonc21`, for which the GI50 with CAKI-1, in the test on SF-268, with OVCAR-4, with NCI-H460, in the test on UACC-62 and with NCI-H23 was > 100 µM (inactive) in each case. Moreover, the GI50 in the test with A549, in the test with Malme-3M, in the test on SK-MEL-2, in the test on CCRF-CEM, in the test on HCT-116 and in the test with DU-145 was > 100 µM (inactive) each time. Besides, the GI50 in the test with K562 is > 100 µM (inactive); with EKVX, 41.6 µM (inactive); in the test on HT-29, > 100 µM (inactive); with RXF 393 it was > 100 µM (inactive); in the test with KM12 it was > 100 µM (inactive); in the test on T47D, > 100 µM (inactive). Besides, the GI50 in the test on HCC 2998 was > 100 µM (inactive).
For `O=C1N(c2ccccc2)N=C2c3ccncc3C3=NN(c4ccccc4)C(=O)C123` (centres undefined), the GI50 is > 63 µM (inactive) in the test with OVCAR-4; 5.32 µM (inactive) in the test on NCI-H460; 5.57 µM (inactive) in the test on UACC-62; > 70 µM (inactive) with NCI-H23; > 32.7 µM (inactive) in the test on A549; > 100 µM (inactive) in the test with Malme-3M. Also, the GI50 with SK-MEL-2 is > 100 µM (inactive); in the test on CCRF-CEM, > 40.9 µM (inactive); in the test on HCT-116, > 29.7 µM (inactive); with K562 it was 0.252 µM (active); in the test with EKVX it was > 100 µM (inactive); in the test with HT-29, > 39.6 µM (inactive). Moreover, the GI50 in the test on BT-549 was > 48.4 µM (inactive); with RXF 393, > 100 µM (inactive); in the test with KM12, 0.556 µM (active); with T47D it was 2.26 µM (inactive); in the test on HCC 2998, 6.68 µM (inactive).
On to `O=C(NC(=S)Nc1ccc([N+](=O)[O-])cc1)c1ccc2c(c1)Sc1ccccc1O2`, for which the GI50 in the test with CAKI-1 is > 100 µM (inactive); with SF-268, 30.2 µM (inactive); with NCI-H460, > 100 µM (inactive); in the test with UACC-62, 71.3 µM (inactive); with NCI-H23, > 100 µM (inactive); in the test on A549, > 100 µM (inactive). Further, the GI50 is 65.8 µM (inactive) in the test on Malme-3M; 99.1 µM (inactive) with SK-MEL-2; > 100 µM (inactive) with CCRF-CEM; > 100 µM (inactive) in the test with HCT-116; > 100 µM (inactive) in the test with DU-145; > 100 µM (inactive) with K562. The GI50 with HT-29 is > 100 µM (inactive); with BT-549, > 100 µM (inactive); in the test with KM12 it was > 100 µM (inactive); in the test with T47D, 24.6 µM (inactive).
Turning to `N#Cc1c(-c2ccccc2)[nH]c2ccccc2c1=O`, the GI50 with CAKI-1 was > 100 µM (inactive); in the test with SF-268, 35 µM (inactive); in the test on OVCAR-4 it was > 100 µM (inactive); in the test with NCI-H460 it was > 100 µM (inactive); in the test with UACC-62 it was 73.8 µM (inactive); with A549, 9.59 µM (inactive). Moreover, the GI50 with Malme-3M is 41.3 µM (inactive); in the test with SK-MEL-2 it was 39.6 µM (inactive); with CCRF-CEM, > 100 µM (inactive); with HCT-116, 87.5 µM (inactive); with DU-145 it was > 100 µM (inactive); in the test on K562, 59.4 µM (inactive). The GI50 is > 100 µM (inactive) in the test with EKVX; > 100 µM (inactive) with HT-29; 25.8 µM (inactive) in the test with BT-549; 30.7 µM (inactive) in the test with RXF 393; 47.9 µM (inactive) with KM12; > 10 µM (inactive) with HCC 2998.
